Assay results: patent US5882851A, “Cytochrome P-450 monooxygenases” (Novartis Finance Corporation, priority 1993, dated 1999)

Legend:
[1] = system: cytochrome P450; test: Photoreversible carbon monoxide inhibition of oxime production in tropaeolum microsomes; type: biochemical, Tropaeolum majus; details: 60 min
Method: The microsomal reaction mixture consists of 80 μl microsomes (10 mg protein per ml), 10 μl ^14 C-phenylalanine (0.5 μCi, 464 mCi/mmol, Amersham) or ^14 C-tyrosine (0.5 μCi, 450 mCi/mmol, Amersham) and 10 μl NADPH (75 mg/ml). The reaction mixtures are incubated for 1 hour at 37° C. At the end of the incubation period, the reaction mixtures are extracted with 1500 μl ethyl acetate. The ethyl acetate phase is evaporated to dryness, redissolved in a small volume and analyzed.
The microsomal reaction mixtures are incubated using different experimental conditions. The reaction mixtures are analyzed by HPLC.

[2] = target: T1, P-450TYR expressed in E. coli (Sorghum bicolor, UniProt Q43135); test: Substrate binding spectra of P-450TYR expressed in E. coli
T1 construct: in which the 35 N-terminal amino acids are replaced by the nine N-terminal amino acids from bovine 17α hydroxylase; nine N-terminal amino acids from bovine 17alpha-hydroxylase (replace the 35 N-terminal residues) (N); made in house; host or cells: E. coli JM109, vector pSP19g10L
T1 sequence (Q43135 other isoform, or with tags, fused parts or gaps): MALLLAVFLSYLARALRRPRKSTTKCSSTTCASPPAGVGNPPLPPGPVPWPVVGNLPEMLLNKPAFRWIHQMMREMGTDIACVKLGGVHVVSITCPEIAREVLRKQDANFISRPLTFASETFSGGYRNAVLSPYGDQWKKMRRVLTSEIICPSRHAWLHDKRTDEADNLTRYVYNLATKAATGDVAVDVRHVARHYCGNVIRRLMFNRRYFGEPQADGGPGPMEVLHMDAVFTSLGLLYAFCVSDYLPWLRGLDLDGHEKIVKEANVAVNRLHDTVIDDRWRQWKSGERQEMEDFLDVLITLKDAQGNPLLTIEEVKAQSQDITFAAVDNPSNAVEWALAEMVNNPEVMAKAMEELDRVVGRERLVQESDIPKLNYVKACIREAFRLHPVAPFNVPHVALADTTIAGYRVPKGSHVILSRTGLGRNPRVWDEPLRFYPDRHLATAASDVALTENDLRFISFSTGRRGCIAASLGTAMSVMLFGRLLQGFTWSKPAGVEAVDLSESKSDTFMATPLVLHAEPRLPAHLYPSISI
From the text: Cytochrome P-450TYR in the oxidized state has a strong absorption peak at 420 nm, representing the low spin state of the iron of the heme group. The binding of a ligand to the heme group shifts the absorption maximum by changing the spin state of the iron. Binding of tyrosine at the catalytic site of cytochrome P-450TYR induces a change of the spin state of the oxidized iron from low to high spin, and thereby changes the absorption maximum from 420 nm to 390 nm producing a type I spectrum (Jefcoate, Methods in Enzymology 52:258-279, 1978). The following experimental procedure is used to obtain the substrate binding spectrum: two identical cuvettes containing a buffered solution of the isolated cytochrome P-450 are prepared. The substrate of the enzyme is added to the sample cuvette whereas the same volume of buffer is added to the other cuvette. The difference spectrum is then recorded in an SLM-Aminco DW2c spectrophotometer. The absorption difference, A390-420, is proportional to the concentration of cytochrome P-450TYR with a bound substrate at its active site. If a saturating concentration of substrate is added to the sample cuvette, the absorption difference is proportional to the concentration of the substrate specific cytochrome P-450 in the cuvettes. The saturating concentration of the substrate is determined by titrating the cytochrome P-450 sample with increasing amounts of substrate and monitoring A390-420.
A modified cytocrome P-450TYR, in which the 35 N-terminal amino acids are replaced by the nine N-terminal amino acids from bovine 17α hydroxylase is introduced into the expression vector pSP19g10L which can be obtained from Dr. Henry Barnes (La Jolla, Calif.). This plasmid contains the lac Z promoter fused with the known short leader sequence (g10L) of gene 10 from bacteriophage T7 (Olin et al, 1988). A construct containing the N-terminal amino acids from bovine 17α hydroxylase and a truncated form of the P-450TYR gene is designed using PCR mutagenesis: Oligonucleotide TYROL 1d (5'-CGGGATCCATATGGCTCTGTTATTAGCAGTTTTTCTGTCGTACCTGGCCCG-3'; SEQ ID NO 23) containing a 5' mutant cDNA sequence as well as a BamHI and NdeI restriction site is used together with oligonucleotide TYROL 3 comprising the sequence surrounding the unique BamHI restriction site downstream of the ATG start codon of the cDNA coding for P-450TYR to amplify a modified N-terminal sequence of P-450TYR. The amplification product is cut with NdeI and BamHI restriction enzymes. To introduce a HindIII site immediately downstream of the stop codon of the P-450TYR gene, oligonucleotides TYROL 2 and TYROL 4 are used in a polymerase chain reaction to obtain a C-terminal fragment of the P-450TYR gene comprising a HindIII restriction site immediately downstream of the stop codon. The amplification product is cut with PstI and HindIII restriction enzymes. The complete expression plasmid is constructed by simultaneous ligation of the N-terminal NdeI/BamHI fragment, the BamHI/PstI fragment of the P-450TYR gene and the C-terminal PstI/HindIII fragment into NdeI/HindIII cleaved pSP19g10L vector DNA. The expression vector obtained is transformed into E. coli strain JM109. Transformed E. coli produce 300 nmol to 500 nmol cytochrome P-450TYR per liter cell culture upon growth at 28° C. in the presence of 1 mM isopropyl-β-D-thiogalactopyranoside and at 125 rpm. Expression levels as high as 900 nmol per liter, equivalent to 55 mg P-450TYR per liter, have been obtained. […]

[3] = target: T2, E. coli-expressed cytochrome P-450TYR (Sorghum bicolor, UniProt Q43135); test: Reconstitution with E. coli-expressed cytochrome P-450TYR and sorghum NADPH cytochrome P450 reductase; type: biochemical; details: phenylalanine as substrate
T2 construct: in which the 35 N-terminal amino acids are replaced by the nine N-terminal amino acids from bovine 17α hydroxylase; nine N-terminal amino acids from bovine 17alpha-hydroxylase (replace the 35 N-terminal residues) (N); made in house; host or cells: E. coli JM109, vector pSP19g10L
Method: (§1) 10 μl of the lipid suspension is mixed in a glass vial with 50 μl of the cytochrome P-450TYR (0-1.5 pmol) solution. […] The reaction mixture is subsequently incubated for 1 hour at 30° C. At the end of the incubation period the reaction is stopped by transferring the glass vials onto ice. Radioactively labelled intermediates formed are extracted into 50 μl ehtyl acetate, applied to a silica coated TLC plate and developed using an ethyl acetate/toluene (1:5 v/v) mixture as mobile phase. The resultant product, p-hydroxyphenylacetaldehyde oxime is visualized by autoradiography of the TLC plate. Alternatively, the intermediates are analyzed by reverse-phase HPLC coupled to a Berthold radioactiviy monitor. […] Control samples may be made by omitting either cytochrome P-450 oxidoreductase or NADPH.
(§2) Reconstitution experiments with E. cole-expressed cytochrome P-450TYR and sorghum NADPH cytochorme P450 reductase in dilaurylpohsphatidylcholine micelles is performed as described in section 5.3. above.
T2 sequence (Q43135 other isoform, or with tags, fused parts or gaps): as the sequence (Q43135 other isoform, or with tags, fused parts or gaps) above

[4] = system: glucosinolate production; test: Induction of glucosinolate production in Tropaeolum majus; type: in vivo; details: 10 mM phenylalanine or 2% ethanol administered to the vermiculate, 24 hours, etiolated seedlings
Method: Seeds of Tropaeolum majus L. cv Empress of India (Dansk Havefroforsyning, Kolding, DK) are allowed to imbibe and germinate in complete darkness for one week at 25° C. In vivo biosynthesis experiments are performed wherein 1 μCi of the tracer ^14 C-labelled phenylalanine is administered to excised dark-grown seedlings for 24 hours followed by boiling of the plant material in 90% methanol and analysis of the extracts by HPLC as described by Lykkesfeldt and Moller, 1993. Prior to administration of the tracer to the excised seedling or leaf, the intact plant is subjected to a potential inducer for 24 hours.

[5] = target: NADPH-cytochrome P-450 oxidoreductase, purified from Sorghum bicolor (Sorghum bicolor)
[6] = target: NADPH-cytochrome P-450 oxidoreductase, purified from Sorghum bicolor (Sorghum bicolor); remark: listed apart in the source
[7] = target: T3, E. coli-expressed cytochrome P-450TYR (Sorghum bicolor, UniProt Q43135); test: Reconstitution with E. coli-expressed cytochrome P-450TYR and sorghum NADPH cytochrome P450 reductase; type: biochemical; details: dilaurylphosphatidylcholine micelles
T3 construct: in which the 35 N-terminal amino acids are replaced by the nine N-terminal amino acids from bovine 17α hydroxylase; nine N-terminal amino acids from bovine 17alpha-hydroxylase (replace the 35 N-terminal residues) (N); made in house; host or cells: E. coli JM109, vector pSP19g10L
T3 sequence (Q43135 whole entry, looked up): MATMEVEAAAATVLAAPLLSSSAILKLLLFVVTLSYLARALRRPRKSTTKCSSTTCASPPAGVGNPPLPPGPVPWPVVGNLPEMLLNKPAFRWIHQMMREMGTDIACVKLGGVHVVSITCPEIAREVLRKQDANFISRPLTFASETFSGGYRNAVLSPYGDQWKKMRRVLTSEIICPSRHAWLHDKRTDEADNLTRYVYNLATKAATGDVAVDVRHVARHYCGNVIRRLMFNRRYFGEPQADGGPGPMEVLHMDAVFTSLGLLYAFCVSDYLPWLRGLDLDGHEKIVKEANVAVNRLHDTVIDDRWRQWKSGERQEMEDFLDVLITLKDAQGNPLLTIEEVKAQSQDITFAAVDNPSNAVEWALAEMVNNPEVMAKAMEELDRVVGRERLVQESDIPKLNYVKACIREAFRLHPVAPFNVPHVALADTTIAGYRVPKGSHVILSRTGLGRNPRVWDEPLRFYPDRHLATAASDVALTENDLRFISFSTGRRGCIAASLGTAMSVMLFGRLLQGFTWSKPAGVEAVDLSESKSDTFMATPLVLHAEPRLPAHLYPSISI
Method: as §1, §2

## [C-]#[O+] [CO/O2, carbon monoxide]
[1]; with light (450 nm)
  % inhibition of oxime production: 23%
[1]; without light
  % inhibition of oxime production: 65%

## N[C@@H](Cc1ccccc1)C(=O)O [phenylalanine]
[2]
  type of substrate binding spectrum: type Ispectrum
[3]
  production of the corresponding oxime: do not result in the production of the corresponding oxime
[4]
  increase in glucosinolate production as compared to control experiments with water: threefold increase

## modified cytochrome P-450TYR in which the 35 N-terminal amino acids are replaced by the nine N-terminal amino acids from bovine 17α hydroxylase, expressed in E. coli (from UniProt P05185) (enzyme)
[5]
  oxime production by the enzyme reconstituted in dilaurylphosphatidylcholine micelles (turnover rate) (nmol oxime per nmol P-450TYR per minute): 349

B1: cytochrome P-450TYR from Sorghum bicolor (L.) Moench (enzyme)
chain: ATMEVEAAAATVLAAPLLSSSAILKLLLFVVTLSYLARALRRPRKSTTKCSSTTCASPPAGVGNPPLPPGPVPWPVVGNLPEMLLNKPAFRWIHQMMREMGTDIACVKLGGVHVVSITCPEIAREVLRKQDANFISRPLTFASETFSGGYRNAVLSPYGDQWKKMRRVLTSEIICPSRHAWLHDKRTDEADNLTRYVYNLATKAATGDVAVDVRHVARHYCGNVIRRLMFNRRYFGEPQADGGPGPMEVLHMDAVFTSLGLLYAFCVSDYLPWLRGLDLDGHEKIVKEANVAVNRLHDTVIDDRWRQWKSGERQEMEDFLDVLITLKDAQGNPLLTIEEVKAQSQDITFAAVDNPSNAVEWALAEMVNNPEVMAKAMEELDRVVGRERLVQESDIPKLNYVKACIREAFRLHPVAPFNVPHVALADTTIAGYRVPKGSHVILSRTGLGRNPRVWDEPLRFYPDRHLATAASDVALTENDLRFISFSTGRRGCIAASLGTAMSVMLFGRLLQGFTWSKPAGVEAVDLSESKSDTFMATPLVLHAEPRLPAHLYPSISI
[6]
  conversion of L-tyrosine to p-hydroxyphenyl-acetaldehyde oxime by the enzyme reconstituted in lipid micelles (turn-over number): 198 min⁻¹

B2: cytochrome P-450TYR: sorghum cytochrome P-450 monooxygenase converting tyrosine to p-hydroxyphenylacetaldehyde oxime, SEQ ID NO: 2 (protein)
chain: MATMEVEAAAATVLAAPLLSSSAILKLLLFVVTLSYLARALRRPRKSTTKCSSTTCASPPAGVGNPPLPPGPVPWPVVGNLPEMLLNKPAFRWIHQMMREMGTDIACVKLGGVHVVSITCPEIAREVLRKQDANFISRPLTFASETFSGGYRNAVLSPYGDQWKKMRRVLTSEIICPSRHAWLHDKRTDEADNLTRYVYNLATKAATGDVAVDVRHVARHYCGNVIRRLMFNRRYFGEPQADGGPGPMEVLHMDAVFTSLGLLYAFCVSDYLPWLRGLDLDGHEKIVKEANVAVNRLHDTVIDDRWRQWKSGERQEMEDFLDVLITLKDAQGNPLLTIEEVKAQSQDITFAAVDNPSNAVEWALAEMVNNPEVMAKAMEELDRVVGRERLVQESDIPKLNYVKACIREAFRLHPVAPFNVPHVALADTTIAGYRVPKGSHVILSRTGLGRNPRVWDEPLRFYPDRHLATAASDVALTENDLRFISFSTGRRGCIAASLGTAMSVMLFGRLLQGFTWSKPAGVEAVDLSESKSDTFMATPLVLHAEPRLPAHLYPSISI
[7]
  Turnover rate: 349 nmol oxime per nmol P-450TYR per minute
